Values after ≈ are worked out from the molar mass of the structure shown.
Key:
[1] = target: T1, Neuromedin-K receptor (Homo sapiens) (UniProt P29371); experiment: Antagonist activity at NK3 (unknown origin)
T1 sequence (whole entry): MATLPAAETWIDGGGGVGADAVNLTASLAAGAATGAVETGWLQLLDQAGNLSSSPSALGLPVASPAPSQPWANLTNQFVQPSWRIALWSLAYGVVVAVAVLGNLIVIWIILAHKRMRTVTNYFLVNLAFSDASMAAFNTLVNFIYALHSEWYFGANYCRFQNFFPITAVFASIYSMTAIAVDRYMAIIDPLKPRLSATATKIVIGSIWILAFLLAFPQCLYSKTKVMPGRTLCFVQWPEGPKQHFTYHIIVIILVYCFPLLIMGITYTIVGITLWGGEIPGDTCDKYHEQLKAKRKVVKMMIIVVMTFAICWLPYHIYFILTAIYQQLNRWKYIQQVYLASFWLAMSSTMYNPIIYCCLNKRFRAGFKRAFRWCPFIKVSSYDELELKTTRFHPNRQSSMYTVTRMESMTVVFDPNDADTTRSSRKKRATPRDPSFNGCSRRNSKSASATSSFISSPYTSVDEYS

[2] = target: Substance-P receptor (Homo sapiens) (UniProt P25103); experiment: Antagonist activity at NK1 (unknown origin)
[3] = target: T2, Substance-K receptor (Homo sapiens) (UniProt P21452); experiment: Antagonist activity at NK2 (unknown origin)
T2 sequence (whole entry): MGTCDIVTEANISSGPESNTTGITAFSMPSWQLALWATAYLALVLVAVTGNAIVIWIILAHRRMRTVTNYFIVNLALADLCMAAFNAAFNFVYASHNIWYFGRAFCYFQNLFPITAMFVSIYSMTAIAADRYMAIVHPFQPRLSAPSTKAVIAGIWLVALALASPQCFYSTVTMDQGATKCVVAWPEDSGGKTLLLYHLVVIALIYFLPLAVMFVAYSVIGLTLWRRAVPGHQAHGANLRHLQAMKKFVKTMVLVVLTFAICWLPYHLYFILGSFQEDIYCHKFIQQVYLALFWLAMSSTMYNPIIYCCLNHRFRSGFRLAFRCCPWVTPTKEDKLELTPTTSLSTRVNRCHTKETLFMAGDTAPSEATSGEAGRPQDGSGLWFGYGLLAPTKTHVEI

[4] = Aqueous solubility of the compound; format: physicochemical; conditions: water

Substance-P receptor (Homo sapiens), sequence (P25103 whole entry): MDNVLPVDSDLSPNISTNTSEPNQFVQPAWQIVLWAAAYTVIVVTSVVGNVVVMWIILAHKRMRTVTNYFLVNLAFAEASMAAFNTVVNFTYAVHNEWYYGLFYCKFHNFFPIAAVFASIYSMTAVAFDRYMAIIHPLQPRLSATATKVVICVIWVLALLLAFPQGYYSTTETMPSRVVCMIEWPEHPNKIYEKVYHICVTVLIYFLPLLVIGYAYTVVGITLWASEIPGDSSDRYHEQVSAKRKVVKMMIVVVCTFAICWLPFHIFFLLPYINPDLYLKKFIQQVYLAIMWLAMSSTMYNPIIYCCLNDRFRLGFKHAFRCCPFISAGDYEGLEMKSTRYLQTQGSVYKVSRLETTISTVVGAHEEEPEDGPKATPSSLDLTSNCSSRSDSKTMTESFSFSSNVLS

Cn1c(-c2c[nH]c3cc(C#N)ccc23)nc2cc(C(=O)N3CCOC(c4ccccc4)C3CO)ccc21 (stereo not drawn)
fKi [1]: 1.2 nM
fKi [2]: > 1000 nM
fKi [3]: > 1000 nM

CCn1c(-c2ccccc2-c2ccc(C)cc2C)nc2cc(C(=O)NC)ccc21
fKi [1]: 1.2 nM
fKi [2]: > 1000 nM
fKi [3]: > 1000 nM

CNC(=O)CN1CN(c2ccccc2)C2(CCN(C(=O)c3ccc4[nH]ncc4c3)CC2)C1=O
solubility [4]: 1.4 µg/mL (≈ 3.14 µM)

O=C(CN1C(=O)C2(CCN(C(=O)c3ccc4[nH]ncc4n3)CC2)c2c(Br)cccc21)NCC(F)(F)F
solubility [4]: 103 µg/mL (≈ 182 µM)

Source: ChEMBL document CHEMBL4610064, “DNA-Encoded Library Screening as Core Platform Technology in Drug Discovery: Its Synthetic Method Development and Applications in DEL Synthesis” (J Med Chem, 2020)
